# From patent publication US11390621B2, “Chiral indole compounds and their use” (ARIAGEN, INC., priority 2019, dated 2022)
# Assays:
# EMT-6 cancer cells = test: EMT-6 subcutaneous syngeneic mouse tumor model (Example 48); assay type: in vivo, BALB/C mice; details: 40 mg/kg, IP
# Protocol: This example describes in vivo studies that evaluated the anti-cancer efficacy of ARI-143, ARI-164, ARI-165, and ARI-186 in syngeneic mouse tumor models. Mice implanted subcutaneously with EMT-6 or Pan02 cancer cells were treated with ARI-143, ARI-164, ARI-165, ARI-186, or vehicle controls, as described below.
# A monolayer culture of tumor cells was maintained in vitro in DMEM or RPMI1640 medium supplemented with 10% fetal bovine serum at 37° C. in an atmosphere of 5% CO2. Cells in exponential growth phase were harvested and quantitated by cell counter before tumor inoculation. The cell lines used are described in the table below.
# Two subcutaneous syngeneic mouse tumor models were generated by innoculating female BALB/C or C57BL/6 mice with cancer cells at their right lower or front flank as detailed in the table below:
# Each mouse was inoculated subcutaneously with tumor cells in 0.1 mL of PBS. Treatments were started when the mean tumor size reached approximately 80-120 mm^3 (around 100 mm^3). The administration of the test compounds and the animal number in each study group are shown in the study design. The date of tumor cell inoculation was denoted as day 0.
# ARI-143, ARI-164, and ARI-165 were dissolved in DMSO at the final concentration of 26.7 mg/ml and stored at room temperature. In Pan02 studies of ARI-164 and ARI-186, both compounds were dissolved in 100% PEG400.
# Randomization of animals was started when the mean tumor size reached approximately 90 mm^3 to form the mouse study groups. The randomization was-performed based on “Matched distribution” method using the multi-task method (StudyDirector™ software, version 3.1.399.19)/randomized block design. The mouse groups (ten in each group) were treated with vehicle (DMSO or PEG400) or the test compounds at a dose of 26-80 mg/kg by intraperitoneal (i.p.). injection, QD for 28 days or longer.
# After tumor cell inoculation, the mice were checked daily for morbidity and mortality. During routine monitoring, the mice were checked for tumor growth and any effects of the treatment on behavior such as mobility, food and water consumption, body weight gain/loss (body weights were measured twice per week after randomization), eye/hair matting, and any other abnormalities. Mortality and observed clinical signs were recorded for individual mice in detail.
# Tumor volumes were measured twice per week in two dimensions using a caliper, and the volume was expressed in mm^3 using the formula: V=(L×W×W)/2, where V is tumor volume, L is tumor length (the longest tumor dimension) and W is tumor width (the longest tumor dimension perpendicular to L). Dosing as well as tumor and body weight measurements was conducted in a Laminar Flow Cabinet. The body weights and tumor volumes were measured by using StudyDirector™ software (version 3.1.399.19). Dosing Holiday
# Tumor growth inhibition percentage (TGI %) is an indicator for antitumor activity of a drug compound, and expressed as: TGI(%)=100×(1−T/C), where T and C are the mean tumor volume (or weight) of the treated and control groups, respectively, on a given day. Statistical analysis of the difference in mean tumor volume (MTV) among the groups was conducted using the data collected on the day when the MTV of the vehicle group reached the humane endpoints, so that TGI could be derived for all or most mice enrolled in the study.
# Pan02 = Pan02 syngeneic mouse tumor model, ARI-164 / anti-PD-1 / combination (Example 49); assay type: in vivo
# Protocol: (§1) In this example, the in vivo anti-tumor efficacy of a combination of ARI-164 with an anti-PD-1 antibody was evaluated using a panel of seven subcutaneous syngeneic mouse tumor models.
# (§2) Seven subcutaneous syngeneic mouse tumor models were generated by innoculating female BALB/C or C57BL/6 mice with cancer cells at their right lower or right front flank followed by randomization as detailed in Table 10 below.
# (§3) A solution of a rat monoclonal anti-mouse PD-1 antibody (isotype IgG2a, κ) at a concentration of 6.61 mg/ml was obtained from BioXcell (InVivoMAb anti-mouse PD-1 (CD279), Clone RMP1-14, Cat #BE0146)) and store at 4° C. The antibody solution was diluted with PBS to obtain a 1 mg/ml dosing solution.
# (§4) ARI-164 powder was stored at −20° C. The powder of the compound was dissolved in DMSO to obtain dosing solutions at 26.7 mg/ml for administration to mice at 40 mg/kg, respectively.
# (§5) Seven studies using the seven subcutaneous syngeneic mouse tumor models were performed. In each study, 80 mice were enrolled and randomly allocated to eight different study groups, with 10 mice in each study group. The mean tumor size at randomization was approximately 80-120 mm^3 (around 100 mm^3). Randomization was performed based on “Matched distribution” randomization method (StudyDirector™ software, version 3.1.399.19). […]
# (§6) The data was collected and analyzed as described above in Example 48.
# MC38 = MC38 syngeneic mouse tumor model, ARI-164 / anti-PD-1 / combination (Example 49); assay type: in vivo
# Protocol: as §1, §2, §3, §4, §5, §6
# EMT-6 = EMT-6 syngeneic mouse tumor model, ARI-164 / anti-PD-1 / combination (Example 49); assay type: in vivo; details: EMT-6 model
# Protocol: as §1, §2, §3, §4, §5, §6
# A20 = A20 syngeneic mouse tumor model, ARI-164 / anti-PD-1 / combination (Example 49); assay type: in vivo
# Protocol: as §1, §2, §3, §4, §5, §6
# H22 = H22 syngeneic mouse tumor model, ARI-164 / anti-PD-1 / combination (Example 49); assay type: in vivo
# Protocol: as §1, §2, §3, §4, §5, §6
# 4T-1 = 4T-1 syngeneic mouse tumor model, ARI-164 / anti-PD-1 / combination (Example 49); assay type: in vivo; details: 4T-1 model
# Protocol: as §1, §2, §3, §4
# Seven studies using the seven subcutaneous syngeneic mouse tumor models were performed. In each study, 80 mice were enrolled and randomly allocated to eight different study groups, with 10 mice in each study group. The mean tumor size at randomization was approximately 80-120 mm^3 (around 100 mm^3). Randomization was performed based on “Matched distribution” randomization method (StudyDirector™ software, version 3.1.399.19). […] All the drugs and vehicle controls were injected to the mice intraperitoneally.
# as §6
# LL/2 = LL/2 syngeneic mouse tumor model, ARI-164 / anti-PD-1 / combination (Example 49); assay type: in vivo
# Protocol: as §1, §2, §3, §4, §5, §6
# [1] = intraperitoneal, anti-PD-1 10 mg/kg BIW, ARI-164 40 mg/kg QD
smiles,measurement,setting,value
"CCC(=O)c1csc(C(=O)c2c[nH]c3cc(F)ccc23)n1 [ARI-143, 1-(2-(6-fluoro-1H-indole-3-carbonyl)thiazol-4-yl)propan-1-one]",TGI,"EMT-6 cancer cells; (susp), study day 6",0.1%
same,TGI,"EMT-6 cancer cells; (susp), study day 10",−10.1%
same,TGI,"EMT-6 cancer cells; (susp), study day 13",0.6%
same,TGI,"EMT-6 cancer cells; (susp), study day 17",30.9%
same,TGI,"EMT-6 cancer cells; (susp), study day 20",41.0%
same,TGI,"EMT-6 cancer cells; (susp), study day 24",53.2%
same,TGI,"EMT-6 cancer cells; (susp), study day 27",51.8%
same,TGI,"EMT-6 cancer cells; (susp), study day 31",54.8%
"CC[C@H](O)c1csc(C(=O)c2c[nH]c3cc(F)ccc23)n1 [ARI-164, (S)-(6-Fluoro-1H-indol-3-yl)(4-(1-hydroxypropyl)thiazol-2-yl)methanone]",tumor inhibition (in words),"Pan02; combination with anti-PD-1 antibody, study day 55",increased tumor inhibition
same,TGI (%),Pan02; [1],61.1%
same,tumor inhibition (in words),"MC38; combination with anti-PD-1 antibody, study day 27",significant tumor inhibition
same,TGI (%),"MC38; intraperitoneal, anti-PD-1 10 mg/kg BIW, ARI-164 160 mg/kg QD",18.8%
same,tumor inhibition (in words),"EMT-6; combination with anti-PD-1 antibody, study day 30",significant tumor inhibition
same,TGI (%),EMT-6; [1],57.2%
same,tumor inhibition (in words),"A20; combination with anti-PD-1 antibody, study day 28",significant tumor inhibition
same,TGI (%),A20; [1],28.1%
same,tumor inhibition (in words),"H22; combination with anti-PD-1 antibody, study day 24",significant tumor inhibition
same,TGI (%),H22; [1],46.9%
same,TGI,EMT-6 cancer cells; study day 6,0.1%
same,TGI,EMT-6 cancer cells; study day 10,−10.8%
same,TGI,EMT-6 cancer cells; study day 13,−2.4%
same,TGI,EMT-6 cancer cells; study day 17,20.8%
same,TGI,EMT-6 cancer cells; study day 20,41.6%
same,TGI,EMT-6 cancer cells; study day 24,54.7%
same,TGI,EMT-6 cancer cells; study day 27,54.3%
same,TGI,EMT-6 cancer cells; study day 31,56.2%
same,effect on tumor growth (in words),"4T-1; ARI-164 alone, 40 mg/kg i.p.",delay tumor growth
same,tumor growth inhibition (in words),"4T-1; combination with anti-PD-1 antibody, study day 31",statistically significant delta in tumor growth inhibition
same,TGI (%),4T-1; [1],45.3%
same,tumor inhibition (in words),"LL/2; LL/2 model (FIG. 21F), combination with anti-PD-1 antibody, study day 32",tumor inhibition
same,TGI (%),"LL/2; LL/2 model, intraperitoneal, anti-PD-1 10 mg/kg BIW, ARI-164 40 mg/kg QD",42.5%
